Data on one molecule can be found in patent US8440638B2, “Compositions and methods for modulating calcium flux, glucose homeostasis and apoptosis” (Wisconsin Alumni Research Foundation, priority 2004, dated 2013).

The assay relates to TRPM2-expressing HEK-293 cells. Nature of the assay: Cell viability assay (calcein fluorescence), tet-inducible TRPM2 HEK-293 cells. The format is cell-based. The procedure:
Shown are HEK-293 cells (closed diamond) and HEK-293 cells stably transfected with a tet-controlled TRPM2 construct in the presence (open squares) or absence of (open diamonds) tetracycline. […] TRPM2-expressing HEK-293 cells were grown in complete DMEM media and 1 μg/ml tetracycline until 80-90% confluent. One set of cells were re-fed with the same complete media (closed diamonds) and the other set of cells were rinsed with PBS and fed with modified media containing 1 μg/ml tetracycline, 5 mM EGTA and without calcium chloride (open squares). […] HEK-293 (close diamond) and TRPM2 expressing HEK-293 cells in the absence (open diamond) or presence of (closed square) tetracycline were exposed to 0-10 μg/ml cycloheximide for 16 h. Cell viability was determined as described in (a).
TRPM2-expressing HEK-293 cells were exposed to 0-50 μM puromycin for 16 h in the presence (open diamond) or absence (closed diamond) of 500 μM nicotinamide. […] TRPM2-expressing HEK-293 cells were exposed to 0-50 μM puromycin for 16 h in the presence (open diamond) or absence (closed diamond) of 1.5 mM 3-aminobenzamide. Cell survival was determined as described in (a).
HEK-293 and tetracycline (tet)-inducible HEK-293 TRPM2-expressing cells (23) were cultured in DMEM and 10% FBS at 37° C., 5% CO2. Media used to culture tet-inducible HEK-293 cells was supplemented with blasticidin (5 μg ml^−1; Invitrogen) and zeocin (0.4 mg/ml; Invitrogen). To induce expression of TRPM2 in recombinant HEK-293 cells, tetracycline was added to the media at 1 μg ml^−1 (Invitrogen) 24 h prior to experiments. The CRI-G1 rat β-islet tumor cell line was obtained from EACC and cultured in DMEM, 10% FBS and 2 mM glutamine.
HEK-293, tet-inducible HEK-293, and CRI-G1 cells were seeded into 6 well plates at a density of 500,000 cells per well. When cells were 50-70% confluent, puromycin was added to the media at various concentrations for 16 hours. Cell monolayers were rinsed with PBS, after which 0.5 ml of 2 μM calcein in PBS was added directly to the well for 10-20 minutes. Calcein is retained in living, but not dead cells, where it undergoes catalytic conversion into a fluorescent compound Fluorescence in each well was measured in a microplate reader using excitation and emission filters at 485/530 nm, respectively.

In the case of `COc1ccc(C[C@H](N)C(=O)N[C@H]2[C@@H](O)[C@H](n3cnc4c(N(C)C)ncnc43)O[C@@H]2CO)cc1` [puromycin], the “puromycin-induced cell death in Ca2+-free media” value (Ca2+ removed (5 mM EGTA) before puromycin 0-500 μM, 6 h) is “completely blocked”. Also, the “puromycin-dependent cell death, TRPM2 not induced” value (TRPM2 expression not induced by tet) was “nearly complete protection”. In addition, the “puromycin-dependent cell death, TRPM2 not induced, highest level” value (not induced by tet, 50 μM puromycin) is “Some cell death”. Where the note is “tet-induced TRPM2 expression, as little as 5 μM, dose-dependence up to 50 μM, 16 h”, the “cell death following puromycin treatment” value was “profound sensitivity to cell death”.
